Here are results for three compounds from patent US20100040598A1, “KIT OF PARTS COMPRISING AN ACID LABILE AND AN ACID RESISTANT PHARMACEUTICALLY ACTIVE INGREDIENT” (priority 2006, published 2010).

A short description of data set [1]: Crossover bioavailability study of tablet B before and tablet A after food intake vs both after food intake (Example 3). The format is in vivo, human. Conditions: data not shown. The method, then:
In this study 20 subjects are randomized in balanced manner into 2 sequences. The subjects in the sequence 1 obtain tablet B under fasting conditions and then tablet A 30 minutes after beginning of food intake whereas the subjects in the second sequence are dosed with both tablets (A and B) 30 minutes after beginning of food intake. The extended release tablet A contains 1125 mg amoxicillin whereas tablet B is an immediate release formulation comprising 875 mg as amoxicillin trihydrate and 125 mg clavulanic acid as clavulanate potassium salt. The volunteers receive […] of non-carbonated water to each tablet administered.
The standardized breakfast (before or between the dosing) consists of 2 eggs fried in butter, 2 strips of bacon, 2 slices of toast with butter, 120 ml of hash brown potatoes and 240 ml of whole milk (3.5% fat).
(§1) Blood samples are taken before and 0.5, 1, 1.5, 2, 2.5, 3, 3.5, 4, 4.5, 5, 5.5, 6, 6.5, 7, 7.5, 8, 8.5, 9, 9.5, 10 and 12 hours after ingestion of the test tablet. Blood samples are centrifuged and stored at −80° C. Concentrations of both amoxicillin and clavulanic acid are determined according to known methods using a LC-MS/MS procedure (HPLC coupled Online with MS). Pharmacokinetic parameters are expressed as Cmax (maximal plasma concentration) and AUC0→∞ (area under the plasma concentration-time curve extrapolated to infinity) which are determined analogously as described above in comparative example A. Cmax is directly taken from the plasma-concentration-time curve. AUC0→∞ is calculated as follows: AUC0→∞=AUC0→tlast+AUCtlast→∞ wherein AUC0→tlast is the area under the plasma concentration-time curve from time of administration until time of last quantifiable concentration measured, i.e. Ct, and is calculated by using the linear trapezoid rule. AUCtlast→∞ is the extrapolated area to infinity that equals to Ct/Kel wherein Kel is the elimination rate constant.

A short description of data set [2]: Influence of food intake on absorption of clavulanic acid and amoxicillin (plasma pharmacokinetics after test tablet, Comparative Example A). The format is in vivo, human. Conditions: for AUC(0-inf) / Cmax / Tmax: human, plasma, oral, one test tablet. The protocol:
An exploratory study involving 9 healthy volunteers receive the test product under fasted and fed conditions. The test product is AUGMENTIN™ XR as commercially available by Glaxosmithkline, and is an extended release tablet containing 1000 mg amoxicillin and 62.5 mg clavulanic acid wherein said tablet consists of a fast release layer comprising 562.5 mg as amoxicillin trihydrate and 62.5 mg clavulanic acid as clavulanate potassium salt, and of an extended release layer containing 437.5 mg amoxicillin as amoxicillin sodium salt. The test tablets are magnetically marked as described in Comparative Example B. The volunteers receive one test tablet together with 240 ml of non-carbonated water under the following conditions:
a) under fasting conditions: on one study day after a fasting period of at least 8 hours, b) at the beginning of a meal: on another study day after the first bite of a high […] standardized breakfast A, and c) under fed conditions: on still another study day 30 minutes after a high fat standardized breakfast B.
The standardized breakfast A consists of 2 slices of bread, 40 g cheese, 150 ml orange juice, 150 ml milk, and 20 g of cereals. The standardized breakfast B consists of 2 eggs fried in butter, 2 strips of bacon, 2 slices of toast with butter, 120 ml of hash brown potatoes and 240 ml of whole milk (3.5% fat).
as §1, with “plasma concentration),” for “plasma concentration) and”, “infinity) and tmax (time of peak plasma concentration). Cmax and tmax as figuring in Tables 1 and 2” for “infinity) which”, “determined from the 9 single values” for “determined analogously as described above in comparative example A. Cmax is”, “curve. […]” for “curve. AUC0→∞”, “constant. The results are reported using descriptive statistics.” for “constant.”
Tables 1 and 2 show the pharmacokinetic parameters of clavulanic acid and amoxicillin, respectively, determined in human plasma from the blood samples taken after administration of one test tablet under fasting or fed conditions or at the beginning of a meal (values are mean values of 9 volunteers).

Data set [3] can be described thus: More extensive study involving 70 volunteers with conventional test tablet without magnetic markers. Type of data set: in vivo, human. The following applies: test tablet at the beginning of a meal, data not shown. The protocol: If a conventional combination of an acid labile active ingredient such as clavulanic acid and of an acid resistant active ingredient such as amoxicillin is administered according to a conventional scheme, namely both active ingredients simultaneously, concomitant food intake seems to strongly influence the plasma concentrations and thus bioavailability of the 2 active ingredients. This has been observed in the herein described exploratory study for a conventional combination in the form of a bilayer tablet comprising clavulanic acid for immediate release and amoxicillin for both immediate and extended release such as the herein described test tablet.

The conditions of data set [4]: co-administered e.g. with sodium bicarbonate; compared to fasting; cited from earlier work.

For orientation: Cmax means the peak of the concentration-time curve. In general, Tmax refers to the time at which the peak concentration occurs.

Like-named read-outs stand apart in the source and are kept apart here.

For `CC1(C)S[C@@H]2[C@H](NC(=O)[C@H](N)c3ccc(O)cc3)C(=O)N2[C@H]1C(=O)O` [amoxicillin], the “Initial maximum plasma concentrations Cmax of amoxicillin” value in data set [1] (condition a) vs condition b)) is “higher initial maximum plasma concentrations”. The “Plasma level of amoxicillin (duration)” value in data set [1] (condition a) vs condition b)) is listed as “slightly prolonged”. In addition, the AUC of amoxicillin entry in data set [2] (at the beginning of a meal compared with fasting and fed state) is “lies in between that observed for the fasting and for the fed state”; in data set [2] (fasting conditions compared with fed conditions), “significantly reduced”. For the same compound, the “Plasma concentrations of amoxicillin (FIG. 2): absorption” value in data set [2] (fed conditions compared with fasting conditions) is “delayed absorption”. The tmax of amoxicillin entry in data set [2] (fed conditions compared with fasting or beginning of a meal) is “significantly delayed”. The AUC(0-inf) in data set [2] (amoxicillin in human plasma, at the beginning of a meal, read-out: AUC0→∞, mean value ± s (converted)) is 40900 ng·h/mL; in data set [2] (amoxicillin in human plasma, at the beginning of a meal, read-out: AUC0→∞, median (converted)), 39100 ng·h/mL; in data set [2] (amoxicillin in human plasma, fasting conditions, 9 volunteers, read-out: AUC0→∞, mean value ± s (converted)) it was 30900 ng·h/mL; in data set [2] (amoxicillin in human plasma, fasting conditions, read-out: AUC0→∞, median (converted)), 29000 ng·h/mL; in data set [2] (amoxicillin in human plasma, fed conditions (30 minutes after high fat breakfast), read-out: AUC0→∞, mean value ± s (converted)), 43400 ng·h/mL; in data set [2] (amoxicillin in human plasma, fed conditions, read-out: AUC0→∞, median (converted)), 42100 ng·h/mL. The Cmax amounted to 10400 ± 2000 ng/mL in data set [2] (amoxicillin in human plasma, at the beginning of a meal, read-out: Cmax, mean value ± s); 9870 ng/mL in data set [2] (amoxicillin in human plasma, at the beginning of a meal, read-out: Cmax, median); 10300 ± 1200 ng/mL in data set [2] (amoxicillin in human plasma, fasting conditions, read-out: Cmax, mean value ± s); 10300 ng/mL in data set [2] (amoxicillin in human plasma, fasting conditions, read-out: Cmax, median); 9880 ± 2300 ng/mL in data set [2] (amoxicillin in human plasma, fed conditions, read-out: Cmax, mean value ± s); 9830 ng/mL in data set [2] (amoxicillin in human plasma, fed conditions, read-out: Cmax, median). The Tmax is roughly 1.38 h in data set [2] (amoxicillin in human plasma, at the beginning of a meal, read-out: tmax, mean value ± s (converted)); 1 h in data set [2] (amoxicillin in human plasma, at the beginning of a meal, read-out: tmax, median (converted)); roughly 1.5 h in data set [2] (amoxicillin in human plasma, fasting conditions, read-out: tmax, mean value ± s (converted)); 1.5 h in data set [2] (amoxicillin in human plasma, fasting conditions, read-out: tmax, median (converted)); 2.28 h in data set [2] (amoxicillin in human plasma, fed conditions, read-out: tmax, mean value ± s (converted)); 1.5 h in data set [2] (amoxicillin in human plasma, fed conditions, read-out: tmax, median (converted)). Besides, in data set [2] (test tablet after food intake compared with fasting), the “Maximum plasma concentrations Cmax of amoxicillin” value is on record as “slightly lower”.

For the compound `O=C(O)[C@H]1/C(=C/CO)O[C@@H]2CC(=O)N21` [clavulanic acid], the “Bioavailability of clavulanic acid” value in data set [3] is “slightly decreased”. The “Plasma concentrations of clavulanic acid” value in data set [1] (condition a) tablet B fasting, tablet A 30 minutes after beginning of food intake, vs b) both tablets 30 minutes after beginning of food intake) is listed as “significantly higher”. The “Cmax and AUC0→∞ of clavulanic acid” value in data set [1] (condition a) vs condition b)) is recorded as “significantly higher”. Moreover, in data set [2] (fed state compared with fasting conditions), the “Cmax and AUC of clavulanic acid” value was “significantly reduced”. For the same compound, the AUC(0-inf) in data set [2] (clavulanic acid in human plasma, at the beginning of a meal, read-out: AUC0→∞, mean value ± s (converted)) is 3280 ng·h/mL; in data set [2] (clavulanic acid in human plasma, at the beginning of a meal, read-out: AUC0→∞, median (converted)) it was 2880 ng·h/mL; in data set [2] (clavulanic acid in human plasma, fasting conditions, 9 volunteers, read-out: AUC0→∞, mean value ± s (converted)) it was 3300 ng·h/mL; in data set [2] (clavulanic acid in human plasma, fasting conditions, read-out: AUC0→∞, median (converted)), 3020 ng·h/mL; in data set [2] (clavulanic acid in human plasma, fed conditions (30 minutes after high fat breakfast), read-out: AUC0→∞, mean value ± s (converted)), 2200 ng·h/mL; in data set [2] (clavulanic acid in human plasma, fed conditions, read-out: AUC0→∞, median (converted)), 2080 ng·h/mL. The Cmax in data set [2] (clavulanic acid in human plasma, at the beginning of a meal, read-out: Cmax, mean value ± s) came to 1390 ± 400 ng/mL; in data set [2] (clavulanic acid in human plasma, at the beginning of a meal, read-out: Cmax, median) it was 1240 ng/mL; in data set [2] (clavulanic acid in human plasma, fasting conditions, 9 volunteers, read-out: Cmax, mean value ± s) it was 1400 ± 400 ng/mL; in data set [2] (clavulanic acid in human plasma, fasting conditions, read-out: Cmax, median), 1350 ng/mL; in data set [2] (clavulanic acid in human plasma, fed conditions, read-out: Cmax, mean value ± s), 970 ± 600 ng/mL; in data set [2] (clavulanic acid in human plasma, fed conditions, read-out: Cmax, median) it was 830 ng/mL. For the same compound, the Tmax in data set [2] (clavulanic acid in human plasma, at the beginning of a meal, read-out: tmax, mean value ± s (converted)) is 1.38 h; in data set [2] (clavulanic acid in human plasma, at the beginning of a meal, read-out: tmax, median (converted)) it was 1.5 h; in data set [2] (clavulanic acid in human plasma, fasting conditions, 9 volunteers, read-out: tmax, mean value ± s (converted)), roughly 1.5 h; in data set [2] (clavulanic acid in human plasma, fasting conditions, read-out: tmax, median (converted)) it was 1.5 h; in data set [2] (clavulanic acid in human plasma, fed conditions, read-out: tmax, mean value ± s (converted)), 2.07 h; in data set [2] (clavulanic acid in human plasma, fed conditions, read-out: tmax, median (converted)), 2 h. The “Plasma concentrations of clavulanic acid (FIG. 1)” value in data set [2] (test tablet taken after a meal (breakfast B) compared with fasting) is “significantly reduced”.

As for `COc1ccc2[nH]c([S+]([O-])Cc3ncc(C)c(OC)c3C)nc2c1` (stereo not shown) [omeprazole], the “Bioavailability, effect of food ingestion” value in data set [4] is given as “reduces bioavailability”.
